Numbered stars: 1 amine (or outer) side, 2 acyl side, 3 side chain; on linkers, the order of the positions; unused ones are H or OH. Square brackets hold non-standard residues; d marks the D form. Side chains are listed from the residue outwards. Peptide text beside a SMILES is read from it. * marks the point of attachment. C18 diacid = O=C(O)CCCCCCCCCCCCCCCCC(=O)*; γGlu = O=C(O)[C@H](CCC(=O)[*:2])N[*:1]; PEG2 = NCCOCCOCCC(=O)O
Target: human GLP-1R (Homo sapiens, UniProt P43220)
Assay: CRE-driven luciferase reporter
Type: cell-based

Sequence of human GLP-1R (P43220 24-463): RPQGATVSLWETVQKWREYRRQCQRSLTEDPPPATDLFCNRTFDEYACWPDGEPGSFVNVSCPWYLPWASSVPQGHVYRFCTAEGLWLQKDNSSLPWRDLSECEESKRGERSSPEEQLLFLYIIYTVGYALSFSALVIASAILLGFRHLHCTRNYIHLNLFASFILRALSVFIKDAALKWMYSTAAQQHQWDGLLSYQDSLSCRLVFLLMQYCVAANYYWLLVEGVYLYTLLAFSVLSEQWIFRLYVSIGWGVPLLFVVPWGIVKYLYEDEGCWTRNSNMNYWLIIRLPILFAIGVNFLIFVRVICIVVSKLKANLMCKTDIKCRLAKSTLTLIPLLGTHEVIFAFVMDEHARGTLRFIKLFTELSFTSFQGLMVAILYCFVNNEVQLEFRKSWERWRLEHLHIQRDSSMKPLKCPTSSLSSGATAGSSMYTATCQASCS

| SMILES | EC50 |
| --- | --- |
| CC(C)C[C@H](NC(=O)[C@H](CC(C)C)NC(=O)[C@H](Cc1c[nH]c2ccccc12)NC(=O)[C@H](CCC(=O)O)NC(=O)[C@@H](NC(=O)[C@H](Cc1ccccc1)NC(=O)[C@H](CC(=O)O)NC(=O)[C@H](Cc1c[nH]cn1)NC(=O)[C@H](C)NC(=O)[C@H](C)NC(=O)[C@H](CCCCNC(=O)CCOCCOCCNC(=O)CCOCCOCCNC(=O)CC[C@H](NC(=O)CCCCCCCCCCCCCCCCC(=O)O)C(=O)O)NC(=O)[C@H](CO)NC(=O)[C@H](CC(=O)O)NC(=O)[C@H](CC(C)C)NC(=O)[C@H](Cc1ccc(O)cc1)NC(=O)[C@H](CCCCN)NC(=O)[C@H](CO)NC(=O)[C@H](Cc1ccc(O)cc1)NC(=O)[C@H](CC(=O)O)NC(=O)[C@H](CO)NC(=O)[C@@H](NC(=O)[C@H](Cc1ccccc1)NC(=O)[C@@H](NC(=O)CNC(=O)[C@H](CCC(N)=O)NC(=O)[C@@H](CO)NC(=O)[C@@H](N)Cc1c[nH]cn1)[C@@H](C)O)[C@@H](C)O)C(C)C)C(=O)N[C@@H](CCCNC(=N)N)C(=O)N[C@@H](C)C(N)=O [TA002] (H-H[dS]QGTFTSDYSKYLDSK([PEG2-PEG2-γGlu-C18 diacid])AAHDFVEWLLRA-NH2) | 320 pM |
| CC(C)C[C@H](NC(=O)[C@H](CC(C)C)NC(=O)[C@H](Cc1c[nH]c2ccccc12)NC(=O)[C@H](CCC(=O)O)NC(=O)[C@@H](NC(=O)[C@H](Cc1ccccc1)NC(=O)[C@H](CC(=O)O)NC(=O)[C@H](Cc1c[nH]cn1)NC(=O)[C@H](C)NC(=O)[C@H](C)NC(=O)[C@H](CCCCNC(=O)CCOCCOCCNC(=O)CCOCCOCCNC(=O)CC[C@H](NC(=O)CCCCCCCCCCCCCCCCC(=O)O)C(=O)O)NC(=O)[C@H](CO)NC(=O)[C@H](CC(=O)O)NC(=O)[C@H](CC(C)C)NC(=O)[C@H](Cc1ccc(O)cc1)NC(=O)[C@H](CCCCN)NC(=O)[C@H](CO)NC(=O)[C@H](Cc1ccc(O)cc1)NC(=O)[C@H](CC(=O)O)NC(=O)[C@H](CO)NC(=O)[C@@H](NC(=O)[C@H](Cc1ccccc1)NC(=O)[C@@H](NC(=O)CNC(=O)[C@H](CCC(N)=O)NC(=O)[C@@H](CO)NC(=O)[C@@H](N)Cc1c[nH]cn1)[C@@H](C)O)[C@@H](C)O)C(C)C)C(=O)N[C@@H](CC(N)=O)C(=O)NCC(=O)NCC(=O)N1CCC[C@H]1C(=O)N[C@@H](CO)C(=O)N[C@@H](CO)C(=O)NCC(=O)N[C@@H](C)C(=O)N1CCC[C@H]1C(=O)N1CCC[C@H]1C(=O)N1CCC[C@H]1C(=O)N[C@@H](CO)C(N)=O [TA004] (H-H[dS]QGTFTSDYSKYLDSK([PEG2-PEG2-γGlu-C18 diacid])AAHDFVEWLLNGGPSSGAPPPS-NH2) | 190 pM |
| CCCCCCCCCCCCCCCCCC(=O)NCCOCCOCCC(=O)NCCOCCOCCC(=O)NCCCC[C@H](NC(=O)[C@H](CC(=O)O)NC(=O)[C@H](CO)NC(=O)[C@@H](NC(=O)[C@H](Cc1ccccc1)NC(=O)[C@@H](NC(=O)CNC(=O)[C@H](CCC(N)=O)NC(=O)[C@@H](CO)NC(=O)[C@@H](N)Cc1c[nH]cn1)[C@@H](C)O)[C@@H](C)O)C(=O)N[C@@H](CO)C(=O)N[C@@H](CCCCN)C(=O)N[C@@H](Cc1ccc(OS(=O)(=O)F)cc1)C(=O)N[C@@H](CC(C)C)C(=O)N[C@@H](CC(=O)O)C(=O)NC(C)(C)C(=O)N[C@@H](CCCNC(=N)N)C(=O)N[C@@H](CCCNC(=N)N)C(=O)N[C@@H](C)C(=O)N[C@@H](CCC(N)=O)C(=O)N[C@@H](CC(=O)O)C(=O)N[C@@H](Cc1ccccc1)C(=O)N[C@H](C(=O)N[C@@H](CCC(N)=O)C(=O)N[C@@H](Cc1c[nH]c2ccccc12)C(=O)N[C@@H](CC(C)C)C(=O)N[C@@H](CCSC)C(=O)N[C@@H](CC(N)=O)C(=O)N[C@H](C(=O)NCC(=O)NCC(=O)N1CCC[C@H]1C(=O)N[C@@H](CO)C(=O)N[C@@H](CO)C(=O)NCC(=O)N[C@@H](C)C(=O)N1CCC[C@H]1C(=O)N1CCC[C@H]1C(=O)N1CCC[C@H]1C(=O)N[C@@H](CO)C(N)=O)[C@@H](C)O)C(C)C [TA006] | 2500 pM |

Source: article PMC9136578 (Acta Pharmaceutica Sinica. B, 2021)
